# Assay results from patent US6485970B1, “Immunointeractive antibody” (priority 1997, dated 2002).
# Ends that are not written are not given here.
# Legend:
# [1] = test system: sensory nerves; assay: Rat footpad blister model, vascular response to antidromic electrical stimulation of the sciatic nerve; format: in vivo
# Procedure: (§1) A vacuum-induced blister model in the footpad of anaesthetised rats is used to induce an inflammatory response in naive skin by (a) electrical stimulation (ES) of the distal end of the cut sciatic nerve at 20 v, 5 Hz, […] for 1 min or (b) superfusion of the sensory neuropeptide; substance P (SP) over the blister base.
# (§2) Male outbred Sprague-Dawley rats with an average weight of 250-300 gm were used (n=6-8 per group). Anaesthesia was induced with pentobarbitone sodium (Nembutal, 60 mg/kg, i.p.). To ensure that rats remained under a constant stage of surgical anaesthesia additional doses (15 mg/kg) were administered during the experiment. The absence of an eyelash reflex was used as an indication of the level of unconciousness. At the end of the experiment, animals were killed by barbituate overdose (100 mg/kg).
# A blister was induced on the hind footpad on the anaesthetised rat by applying a vacuum pressure of −40 kPa to the glabrous skin for approximately 30 mins, using a metal suction cap heated to 40° C. by an attached heating element.
# When a blister was established, the surface epithelium was removed and a perspex chamber with inlet and outlet ports was fixed over the blister base. Perfusion of the drugs over the blister was maintained at 4 ml/h by a peristaltic pump (Microperpex S, LKB, Sweden). Both perfusion and body temperature were kept at 37° C.
# An initial 15 min equilibration with Ringer's solution (NaCl 9.0 g, KCl 0.42 g, CaCl2 0.48 g, NaHCO3 0.2 g in 1000 ml dH2O) was allowed before each experiment, during which time a stable baseline was established.
# The right sciatic nerve in the mid-thigh region of the anaesthetised rat was dissected free and cut as proximally as possible. The distal portion of the cut nerve was placed over bipolar platinum electrodes and immersed in liquid paraffin warmed to 37° C. and contained in a bath that was formed by raising the skin flaps of the wound. The distal end of the sciatic nerve was stimulated with a Grass S48 stimulator at 20 V, 5 Hz, 0.5 ms square waves for 1 min. These parameters were previously shown to stimulate sensory nerves with subsequent release of sensory peptides.
# (§3) For measurement of local blood flow, a probe attached to a laser Doppler flowmeter (Periflux, PF2B, Perimed, Sweden) was inserted vertically through a third port in the perspex chamber above the blister base. Relative blood flow was recorded over time on a chart recorder and measured as the surface area under the response curve in cm^2 using a digital planimeter.
# (§4) Vasodilator responses were measured as the area under the response curve (cm^2) using a digital planimeter (Tamaya, Japan). For vascular responses to ES the area was measured for 20 min following stimulation. […] Results are expressed as mean±SEM. […]
# [2] = human, in vivo
# [3] = test system: sensory nerves; assay: Rat footpad blister model, vascular response to substance P perfusion; format: in vivo; settings: SP 1 μM alone
# Procedure: as §1
# as §2, with “At the end of the experiment, animals were killed by barbituate overdose (100 mg/kg).” left out
# as §3, §4
# [4] = test system: BA-TABM; assay: Competitive inhibition ELISA, BA-TABM against plate bound BA-HSA; format: binding, human; settings: competitor pre-incubated with BA-TABM
# Procedure: FIG. 13 is a graphical representation of competitive inhibition ELISA between BA-TABM and various haptens. Purified BA-TABM was diluted and pre-mixed with various haptens. […] The amount of TABM binding as determined using the mouse monoclonal anti-human TABM antibody (MG3C9-1A12). [drawing 12]
# FIG. 14 is a graphical representation showing inhibition ELISA between BA-TABM and various chemicals. Purified BA-TABM was diluted and pre-mixed with various chemicals. […] The amount of TABM binding was determined using the mouse monoclonal anti-human TABM antibody (MG3C9-1A12). [drawing 13]
# The competing antigens or haptens were serially diluted (½) in the diluted serum to give a range equivalent to 5000-312.5 ng per well. […] The plate was then incubated for 60 minutes at 37° C. After washing, mouse anti-human TABM was diluted ( 1/2000), added to the plate and incubated for 90 minutes at 37° C., followed by sheep anti-mouse immunoglobulins ( 1/1000). The assay was then completed as previously described. The same ELISA conditions were used with non-bound organic molecules, except that pre-incubation of competing molecules with BA-TABM and serum was for 60 minutes.
molecule,measurement,setting,value
"COc1cc(CNC(=O)CCCC/C=C/C(C)C)ccc1O [capsaicin, reference compound]",area of the vascular response to ES,"[1]; capsaicin-pretreated rats (50 mg/kg s.c., neonatal), no TGF-β",11.7±1.1 cm^2
Cc1ccccc1 [toluene],"Digit Symbol, Post Challenge Mean",[2],40.00 No. of correct items
same,"Focal Length, Post Challenge Mean",[2],29.53 cms
same,Letter Cancellation,[2],63% correct
same,"Letter Cancellation Time, Post Challenge Mean",[2],4.79 min
same,Letter Cancellation time,[2],(5′40″)
same,"Letter Cancellation, Post Challenge Mean",[2],77.56 % Correct
same,"Prose Memory (delayed), Post Challenge Mean",[2],8.77 No. Items recalled
same,"Prose Memory (immediate), Post Challenge Mean",[2],7.36 No. Items recalled
same,Prose: Delayed Recall,[2],6.5 items
same,Prose: Immediate Recall,[2],6 items
same,"STROOP (colour), Post Challenge Mean",[2],74.43 No. seconds/100 words
same,"STROOP (colour-word), Post Challenge Mean",[2],119.73 No. seconds/100 words
same,"STROOP (word), Post Challenge Mean",[2],58.93 No. seconds/100 words
same,Stroop: Colour word,[2],161 s
same,Stroop: Colours,[2],90 s
same,Stroop: Words,[2],75 s
same,Symbol Digit,[2],32 items
"Substance P (RPKPQQFFGLM; ends and bridges not checked; UniProt P20366 58-68, looked up) [SP, sensory neuropeptide]","vasodilatation response to SP, area under curve 30 min",[3],44.1±3.9 cm^2
TGF-β,area of the vascular response to ES in presence of TGF-β,"[1]; capsaicin-pretreated rats, TGF-β 10 pg/ml",12.1±1.0 cm^2
same,effect on baseline blood flow,"[1]; control rats, TGF-β 10 pg/ml",did not alter the baseline
same,"area under the vascular response curve to ES, 20 min","[1]; control rats, TGF-β 10 pg/ml perfused 10 min prior to ES and post stimulation",31.44±3.2 cm^2
TMA-BSA: trimellitic acid (TMA) protein conjugate,inhibition of BA-TABM binding to plate bound BA-HSA,[4],Weaker inhibition
